Data taken from patent US9561214B2, “Method of treatment using inhibitors of mitosis” (Array BioPharma Inc., priority 2008, dated 2017).

Experiments:
[1] = Determination of MTD in nude mice (HT-29 xenograft study); conditions: mouse, in vivo; female nude mice with subcutaneous HT-29 xenografts; dissolved in normal saline
Method: Female nude mice were implanted subcutaneously with 5×10^6 HT-29 cells in 100 μL PBS. Ten days later, tumors were measured and mice randomized into groups of three with average tumor volume in each group of approximately 240 mm^3. Compound 4 was dissolved in normal saline immediately before dosing. It was determined that 20 mg/kg was the MTD for Compound 4. Dose volume was 10 mL/kg. Dosing was vehicle alone on day 1; and Compound 4 at 20 mg/kg on day 1; and 20 mg/kg on days 1 and 3. At various time points after dosing (24, 48, 72, 96, 120 and 144 hours), mice were euthanized by CO2 inhalation, and the tumors were harvested and immediately placed in formalin. The vehicle control group samples were collected 24 and 72 hours after dosing. The day 1 group samples were collected 24, 48, 72 and 96 hours after that dose. The day 1 and day 3 group samples were collected 72, 96, 120 and 144 hours after the first dose. Paraffin blocks of tumor tissue were prepared by standard procedures. […] Spindle structures were manually counted in three 40× areas of each sample, using a fluorescent microscope. Apoptosis was quantitated by manual counting of TUNEL positive cells, also in three 40× areas of each sample (TUNEL staining using the In Situ Cell Death Detection Kit, AP from Roche).

[2] = Tumor growth inhibition on different dosing schedules (HT-29), tolerability; type: in vivo; conditions: 10 mg/kg IP on days 1, 2, 3, 4 and 5; female nude mice with HT-29 xenografts
Method: Female nude mice were implanted subcutaneously with 5×10^6 HT-29 cells in 100 μL PBS. Eleven to fourteen days later, tumors were measured and mice randomized into groups of seven with average tumor volume in each group of approximately 230 mm^3. Compound 4 was dissolved in normal saline immediately prior to dosing, and administered IP at a volume of 10 mL/kg. Dosing was vehicle alone on day 1 and day 2; and Compound 4 at 20 mg/kg on day 1; 20 mg/kg on days 1 and 2; 20 mg/kg on days 1 and 3; 5 mg/kg on days 1, 2 and 3; 10 mg/kg on days 1, 2 and 3; 10 mg/kg on days 1, 2, 3, 4 and 5; 10 mg/kg on days 1 and 2; and 10 mg/kg on days 1 and 3. Animal weights and tumor volumes were measured (using electronic calipers) twice a week. Tumor volume was calculated using the formula: volume=(width^2×length)/2. Dosing at 10 mg/kg on days 1, 2, 3, 4 and 5 was not tolerated (greater than 20% weight loss and/or death in some of the mice).

[3] = Determination of MTD in a Phase 1 study in patients with solid tumors; type: in vivo
Source text: A total of 13 patients with various solid tumors and with a median age of 66 years (range 40-79 years old) were enrolled in a human phase 1 clinical trial (see “Phase I Safety and Pharmacokinetic Study of ARRY-520 in Solid Tumors.” http://clinicaltrials.gov/ct2/show/NCT00462358, herein incorporated by reference). The solid tumors treated were breast cancer (2), colorectal cancer (2), non-small cell lung cancer (2), pancreatic cancer (2), bladder cancer, salivary gland cancer (adenoid cystic), esophageal cancer, mesothelioma cancer, and a mixed small cell lung cancer/non-small cell lung cancer. Compound 4 was provided for administration as a lyophilized powder contained in a Type 1 clear glass vial for IV use. The dose levels administered were 1.25 and 1.6 mg/m^2/day of Compound 4 on Days 1 and 2 every two weeks.

Q: Which MTD [1] does the source give for CON(C)C(=O)N1N=C(c2cc(F)ccc2F)S[C@@]1(CCCN)c1ccccc1 [Compound 4, (S)-2-(3-aminopropyl)-5-(2,5-difluorophenyl)-N-methoxy-N-methyl-2-phenyl-1,3,4-thiadiazole-3(2H)-carboxamide] here?
A: 20 mg/kg

Q: What about the “tolerability of dosing schedule” value [2] of the same compound?
A: not tolerated

Q: What about the “weight loss and/or death in some of the mice” value [2] of the same compound?
A: greater than 20%

Q: And the MTD ([3]; IV on Days 1 and 2 every two weeks, 13 patients with solid tumors, dose levels 1.25 and 1.6 mg/m^2/day)?
A: 1.25 mg/m^2/day

Q: What about the “MTD, cumulative dose per cycle” value ([3]; IV on Days 1 and 2 every two weeks, patients with solid tumors) of the same compound?
A: 2.5 mg/m^2

Q: What about the DLTs ([3]; human, in vivo, iv) of the same compound?
A: Grade 3 hyponatremia, anorexia, AST increase and febrile neutropenia
